Assay results published in ChEMBL document CHEMBL1201862, “PubChem BioAssay data set” (2004).
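Following 48 hours of exposure in 96-well plates, responses at five concentrations were used to interpolate endpoints linearly. GI50 is the concentration that inhibits growth by half.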 Activity calls are given as the source filed them. No stated cut-off is given here; in the data, active = GI50 up to about 1.1 µM and inactive = higher.

Experiments:
Assay in all cases: inhibition of tumour cell growth, NCI panel, 48 h
[1] = test system: SK-OV-3
[2] = test system: SF-539
[3] = test system: SNB-75
[4] = test system: HOP-62
[5] = test system: MCF7
[6] = test system: SF-295
[7] = test system: HCC 2998
[8] = test system: U-251
[9] = test system: SNB-19
[10] = test system: A498
[11] = test system: NCI/ADR-RES
[12] = test system: LOX IMVI
[13] = test system: NCI-H226
[14] = test system: MDA-MB-435
[15] = test system: M14
[16] = test system: HT-29
[17] = test system: RXF 393
[18] = test system: MDA-MB-231
[19] = test system: SK-MEL-5
[20] = test system: MOLT-4
[21] = test system: KM12
[22] = test system: UO-31
[23] = test system: PC-3
[24] = test system: HCT-116
[25] = test system: NCI-H23
[26] = test system: Hs-578T
[27] = test system: UACC-62
[28] = test system: UACC-257
[29] = test system: MDA-N
[30] = test system: SR
[31] = test system: COLO 205
[32] = test system: EKVX
[33] = test system: HOP-92
[34] = test system: 786-0
[35] = test system: CCRF-CEM
[36] = test system: HCT-15
[37] = test system: CAKI-1
[38] = test system: T47D
[39] = test system: NCI-H460
[40] = test system: OVCAR-3
[41] = test system: RPMI-8226
[42] = test system: OVCAR-5
[43] = test system: SN12C
[44] = test system: K562
[45] = test system: BT-549
[46] = test system: HL-60
[47] = test system: DU-145
[48] = test system: SW-620
[49] = test system: ACHN
[50] = test system: SF-268
[51] = test system: TK-10
[52] = test system: IGROV-1
[53] = test system: SK-MEL-28
[54] = test system: OVCAR-8
[55] = test system: OVCAR-4
[56] = test system: A549
[57] = test system: SK-MEL-2
[58] = test system: Malme-3M
[59] = test system: NCI-H522

For `c1cc(-c2csc(-c3ccsc3)c2)cs1`, the GI50 [1] was > 100 µM (inactive), the GI50 [2] was 36.5 µM (inactive) and the GI50 [3] was > 100 µM (inactive). The GI50 [4] was 71.6 µM (inactive), the GI50 [5] was 20.3 µM (inactive) and the GI50 [6] was > 100 µM (inactive). For the same molecule, the GI50 [7] was 42.5 µM (inactive), the GI50 [8] was > 100 µM (inactive) and the GI50 [9] was 53.1 µM (inactive). The GI50 [10] was > 100 µM (inactive), the GI50 [11] was > 100 µM (inactive) and the GI50 [12] was > 100 µM (inactive). The GI50 [13] was 13.5 µM (inactive), the GI50 [14] was > 100 µM (inactive) and the GI50 [15] was 47 µM (inactive). For the same molecule, the GI50 [16] was > 100 µM (inactive), the GI50 [17] was > 100 µM (inactive) and the GI50 [18] was > 100 µM (inactive). The GI50 [19] was > 100 µM (inactive), the GI50 [20] was > 100 µM (inactive) and the GI50 [21] was 63.4 µM (inactive). For the same molecule, the GI50 [22] was > 100 µM (inactive), the GI50 [23] was 58.9 µM (inactive) and the GI50 [24] was > 100 µM (inactive). For the same molecule, the GI50 [25] was > 100 µM (inactive), the GI50 [26] was > 100 µM (inactive) and the GI50 [27] was > 100 µM (inactive). The GI50 [28] was > 100 µM (inactive), the GI50 [29] was > 100 µM (inactive) and the GI50 [30] was > 100 µM (inactive). The GI50 [31] was > 100 µM (inactive), the GI50 [32] was > 100 µM (inactive) and the GI50 [33] was > 100 µM (inactive). The GI50 [34] was > 100 µM (inactive), the GI50 [35] was > 100 µM (inactive) and the GI50 [36] was over 100 µM. For the same molecule, the GI50 [37] was > 100 µM (inactive), the GI50 [38] was > 100 µM (inactive) and the GI50 [39] was > 100 µM (inactive). For the same molecule, the GI50 [40] was 52.1 µM (inactive), the GI50 [41] was > 100 µM (inactive) and the GI50 [42] was 88.9 µM (inactive). For the same molecule, the GI50 [43] was > 100 µM (inactive), the GI50 [44] was > 100 µM (inactive) and the GI50 [45] was > 100 µM (inactive). The GI50 [46] was > 100 µM (inactive), the GI50 [47] was > 100 µM (inactive) and the GI50 [48] was > 100 µM (inactive). For the same molecule, the GI50 [49] was > 100 µM (inactive), the GI50 [50] was > 100 µM (inactive) and the GI50 [51] was > 100 µM (inactive). For the same molecule, the GI50 [52] was > 100 µM (inactive), the GI50 [53] was > 100 µM (inactive) and the GI50 [54] was > 100 µM (inactive). The GI50 [55] was > 100 µM (inactive) and the GI50 [56] was > 100 µM (inactive).

`COc1ccc(C(=C(I)c2ccccc2)c2ccc(OC)cc2)cc1` was tested, and the GI50 [1] was > 100 µM (inactive), the GI50 [2] was > 100 µM (inactive) and the GI50 [4] was > 100 µM (inactive). For the same molecule, the GI50 [5] was 21.6 µM (inactive), the GI50 [6] was > 100 µM (inactive) and the GI50 [7] was > 100 µM (inactive). The GI50 [8] was > 100 µM (inactive), the GI50 [9] was > 100 µM (inactive) and the GI50 [11] was > 100 µM (inactive). For the same molecule, the GI50 [12] was > 100 µM (inactive), the GI50 [13] was > 100 µM (inactive) and the GI50 [14] was > 100 µM (inactive). For the same molecule, the GI50 [15] was > 100 µM (inactive), the GI50 [16] was 7.23 µM (inactive) and the GI50 [17] was > 100 µM (inactive). For the same molecule, the GI50 [18] was > 100 µM (inactive), the GI50 [19] was 49.8 µM (inactive) and the GI50 [20] was > 100 µM (inactive). The GI50 [21] was > 100 µM (inactive), the GI50 [22] was > 100 µM (inactive) and the GI50 [23] was > 100 µM (inactive). The GI50 [24] was 51.3 µM (inactive), the GI50 [25] was > 100 µM (inactive) and the GI50 [26] was > 100 µM (inactive). The GI50 [27] was > 100 µM (inactive), the GI50 [28] was > 100 µM (inactive) and the GI50 [29] was > 100 µM (inactive). The GI50 [30] was > 100 µM (inactive), the GI50 [31] was > 100 µM (inactive) and the GI50 [32] was > 100 µM (inactive). For the same molecule, the GI50 [33] was > 100 µM (inactive), the GI50 [34] was > 100 µM (inactive) and the GI50 [35] was > 100 µM (inactive). The GI50 [57] was > 100 µM (inactive), the GI50 [36] was 65.6 µM and the GI50 [37] was > 100 µM (inactive). For the same molecule, the GI50 [38] was 19.1 µM (inactive), the GI50 [39] was > 100 µM (inactive) and the GI50 [40] was > 100 µM (inactive). For the same molecule, the GI50 [41] was > 100 µM (inactive), the GI50 [42] was > 100 µM (inactive) and the GI50 [43] was > 100 µM (inactive). The GI50 [44] was > 100 µM (inactive), the GI50 [45] was > 100 µM (inactive) and the GI50 [58] was > 100 µM (inactive). For the same molecule, the GI50 [59] was > 100 µM (inactive), the GI50 [46] was 64.9 µM (inactive) and the GI50 [47] was > 100 µM (inactive). For the same molecule, the GI50 [48] was > 100 µM (inactive), the GI50 [49] was > 100 µM (inactive) and the GI50 [50] was > 100 µM (inactive). For the same molecule, the GI50 [51] was > 100 µM (inactive), the GI50 [52] was > 100 µM (inactive) and the GI50 [53] was > 100 µM (inactive). The GI50 [54] was > 100 µM (inactive), the GI50 [55] was > 100 µM (inactive) and the GI50 [56] was > 100 µM (inactive).
